Data from ChEMBL document CHEMBL1154782, “Discovery of Trp-His and His-Arg analogues as new structural classes of short antimicrobial peptides” (J Med Chem, 2009).
Values after ≈ are worked out from the molar mass of the structure shown. Where a SMILES comes first, the peptide text is derived from it. The star is where a group is joined. Boc = CC(C)(C)OC(=O)*; NHBn = c1ccc(CN*)cc1

Key:
[1] = test system: Staphylococcus aureus; experiment: Antibacterial activity against methicillin-resistant Staphylococcus aureus DSM 50128509 after 15 to 18 hrs under aerobic condition by modified broth microdilution method; assay type: functional
[2] = test system: Staphylococcus aureus; experiment: Antibacterial activity against methicillin-resistant Staphylococcus aureus DSM 50128509; assay type: functional, organism-based
[3] = test system: Staphylococcus epidermidis; experiment: Antibacterial activity against methicillin-resistant Staphylococcus epidermidis DSM 50160384 after 15 to 18 hrs under aerobic condition by modified broth microdilution method; assay type: functional
[4] = test system: Staphylococcus epidermidis; experiment: Antibacterial activity against methicillin-resistant Staphylococcus epidermidis DSM 50160384; assay type: functional, organism-based
[5] = test system: Escherichia coli; experiment: Antibacterial activity against Escherichia coli ATCC 35218 after 15 to 18 hrs under aerobic condition by modified broth microdilution method; assay type: functional
[6] = test system: Klebsiella pneumoniae; experiment: Antibacterial activity against Klebsiella pneumoniae ATCC 700603 after 15 to 18 hrs under aerobic condition by modified broth microdilution method; assay type: functional
[7] = test system: Klebsiella pneumoniae; experiment: Antibacterial activity against Klebsiella pneumoniae ATCC 700603; assay type: functional, organism-based
[8] = test system: Pseudomonas aeruginosa; experiment: Antibacterial activity against Pseudomonas aeruginosa ATCC 9027 after 15 to 18 hrs under aerobic condition by modified broth microdilution method; assay type: functional
[9] = test system: Pseudomonas aeruginosa; experiment: Antibacterial activity against Pseudomonas aeruginosa ATCC 9027; assay type: functional, organism-based
[10] = test system: Candida albicans; experiment: Antifungal activity against Candida albicans ATCC 10231 after 15 to 18 hrs under aerobic condition by modified broth microdilution method; assay type: functional
[11] = test system: L929; experiment: Cytotoxicity against mouse L929 cells up to 200 ug/mL after 5 days by MTT assay; assay type: cell-based; conditions: l929, 120 h
[12] = test system: Escherichia coli; experiment: Antibacterial activity against Escherichia coli ATCC 35218; assay type: functional, organism-based
[13] = test system: Candida albicans; experiment: Antifungal activity against Candida albicans ATCC 10231; assay type: functional, organism-based

SMILES	MIC [1] [µg/mL]	IC50 [2] [µg/mL]	MIC [3] [µg/mL]	IC50 [4] [µg/mL]	MIC [5] [µg/mL]	MIC [6] [µg/mL]	IC50 [7] [µg/mL]	MIC [8] [µg/mL]	IC50 [9] [µg/mL]	MIC [10] [µg/mL]	Activity [11]	IC50 [12] [µg/mL]	IC50 [13] [µg/mL]
COC(=O)[C@H](CCCNC(=N)N)NC(=O)[C@@H](N)Cc1c[nH]c(C23CC4CC(CC(C4)C2)C3)n1	10 (≈ 21.8 µM)	3.67 (≈ 7.99 µM)	20 (≈ 43.5 µM)	4.28 (≈ 9.31 µM)	> 200	200 (≈ 435 µM)	19.4 (≈ 42.2 µM)	200 (≈ 435 µM)	35.5 (≈ 77.2 µM)	> 200	Non-toxic		
COC(=O)[C@H](CCCNC(=N)N)NC(=O)[C@H](Cc1c[nH]c(C2CCC2)n1)NC(=O)OC(C)(C)C	> 200		> 200		200 (≈ 417 µM)	200 (≈ 417 µM)	15 (≈ 31.2 µM)	> 200		> 200	Non-toxic	18.1 (≈ 37.8 µM)	
N=C(N)NCCC[C@H](NC(=O)[C@@H](N)Cc1c[nH]c(C2CCCCC2)n1)C(=O)NCc1ccccc1	20 (≈ 41.4 µM)	2.06 (≈ 4.27 µM)	5 (≈ 10.4 µM)	1 (≈ 2.07 µM)	200 (≈ 414 µM)	200 (≈ 414 µM)	23.5 (≈ 48.7 µM)	> 200		200 (≈ 414 µM)	Non-toxic	17.5 (≈ 36.3 µM)	18 (≈ 37.3 µM)
COC(=O)[C@H](CCCNC(=N)N)NC(=O)[C@H](Cc1c[nH]c(C2CCCCC2)n1)NC(=O)OC(C)(C)C	200 (≈ 394 µM)	10.1 (≈ 19.9 µM)	100 (≈ 197 µM)	10 (≈ 19.7 µM)	100 (≈ 197 µM)	> 200		200 (≈ 394 µM)	27.5 (≈ 54.2 µM)	100 (≈ 197 µM)	Non-toxic	4.93 (≈ 9.71 µM)	9.44 (≈ 18.6 µM)
CC(C)c1nc(C[C@H](NC(=O)OC(C)(C)C)C(=O)N[C@@H](CCCNC(=N)N)C(=O)NCc2ccccc2)c[nH]1	100 (≈ 184 µM)	17.9 (≈ 33.1 µM)	100 (≈ 184 µM)	12.7 (≈ 23.3 µM)	200 (≈ 369 µM)	> 200		200 (≈ 369 µM)	45.1 (≈ 83.2 µM)	> 200	Non-toxic	23.7 (≈ 43.7 µM)	
CC(C)(C)OC(=O)N[C@@H](Cc1c[nH]c(C23CC4CC(CC(C4)C2)C3)n1)C(=O)N[C@@H](CCCNC(=N)N)C(=O)NCc1ccccc1	20 (≈ 31.5 µM)	7.47 (≈ 11.8 µM)	100 (≈ 158 µM)	11.5 (≈ 18.1 µM)	> 200	100 (≈ 158 µM)	15.1 (≈ 23.8 µM)	100 (≈ 158 µM)	27.2 (≈ 42.9 µM)	> 200	Non-toxic		
O=C(O)c1cn(C2CC2)c2cc(N3CCNCC3)c(F)cc2c1=O [CIPROFLOXACIN]									1.18 (≈ 3.56 µM)				
N[C@@H](Cc1c[nH]c2ccccc12)C(=O)N[C@@H](Cc1c[nH]c(C23CC4CC(CC(C4)C2)C3)n1)C(=O)NCc1ccccc1	100 (≈ 177 µM)	16 (≈ 28.3 µM)	50 (≈ 88.5 µM)	4.7 (≈ 8.32 µM)	200 (≈ 354 µM)	200 (≈ 354 µM)	32 (≈ 56.6 µM)	> 200		50 (≈ 88.5 µM)	Non-toxic	21.3 (≈ 37.8 µM)	8.25 (≈ 14.6 µM)
N=C(N)NCCC[C@H](NC(=O)[C@@H](N)Cc1c[nH]c(C23CC4CC(CC(C4)C2)C3)n1)C(=O)NCc1ccccc1	5 (≈ 9.35 µM)	2.15 (≈ 4.02 µM)	10 (≈ 18.7 µM)	1.19 (≈ 2.23 µM)	200 (≈ 374 µM)	100 (≈ 187 µM)	16.1 (≈ 30.2 µM)	> 200		50 (≈ 93.5 µM)	Non-toxic	9.29 (≈ 17.4 µM)	7.46 (≈ 14 µM)
N[C@@H](Cc1c[nH]c2ccccc12)C(=O)N[C@@H](Cc1c[nH]c(C2CCCCC2)n1)C(=O)NCc1ccccc1	10 (≈ 19.5 µM)	4.8 (≈ 9.36 µM)	50 (≈ 97.5 µM)	7.54 (≈ 14.7 µM)	> 200	50 (≈ 97.5 µM)	17.4 (≈ 33.9 µM)	> 200		100 (≈ 195 µM)	Non-toxic		8.41 (≈ 16.4 µM)
COC(=O)[C@H](CCCNC(=N)N)NC(=O)[C@H](Cc1c[nH]c(C23CC4CC(CC(C4)C2)C3)n1)NC(=O)OC(C)(C)C	50 (≈ 89.3 µM)	9.77 (≈ 17.5 µM)	50 (≈ 89.3 µM)	6.87 (≈ 12.3 µM)	100 (≈ 179 µM)	200 (≈ 357 µM)	31.5 (≈ 56.2 µM)	100 (≈ 179 µM)	25.7 (≈ 45.9 µM)	200 (≈ 357 µM)	Non-toxic	8.33 (≈ 14.9 µM)	16.1 (≈ 28.8 µM)
COC(=O)[C@H](CCCNC(=N)N)NC(=O)[C@@H](N)Cc1c[nH]c(C(C)(C)C)n1	20 (≈ 52.4 µM)	5.39 (≈ 14.1 µM)	20 (≈ 52.4 µM)	2.53 (≈ 6.63 µM)	200 (≈ 524 µM)	200 (≈ 524 µM)	10.5 (≈ 27.6 µM)	> 200		100 (≈ 262 µM)	Non-toxic	18.5 (≈ 48.4 µM)	9.65 (≈ 25.3 µM)
COC(=O)[C@H](Cc1c[nH]c(C23CC4CC(CC(C4)C2)C3)n1)NC(=O)[C@@H](N)Cc1c[nH]c2ccccc12	20 (≈ 40.8 µM)	2.3 (≈ 4.7 µM)	20 (≈ 40.8 µM)	4.59 (≈ 9.37 µM)	> 200	200 (≈ 408 µM)	24.4 (≈ 49.9 µM)	> 200		> 200	Non-toxic		
CC(C)c1nc(C[C@H](N)C(=O)N[C@@H](CCCNC(=N)N)C(=O)NCc2ccccc2)c[nH]1	100 (≈ 226 µM)	4.85 (≈ 11 µM)	200 (≈ 452 µM)	12.8 (≈ 28.8 µM)	> 200	> 200		200 (≈ 452 µM)	27.8 (≈ 62.7 µM)	> 200	Non-toxic		
CC(C)(C)OC(=O)N[C@@H](Cc1c[nH]c2ccccc12)C(=O)N[C@@H](Cc1c[nH]cn1)C(=O)NCc1ccccc1 (Boc-Trp-His-NHBn)	> 200		200 (≈ 377 µM)	15.6 (≈ 29.4 µM)	> 200	200 (≈ 377 µM)	21.2 (≈ 40 µM)	200 (≈ 377 µM)	40.7 (≈ 76.7 µM)	200 (≈ 377 µM)	Non-toxic		9.7 (≈ 18.3 µM)
